Measurements taken from patent publication US12522583B2, “Benzimidazole derivatives and aza-benzimidazole derivatives as Janus kinase 2 inhibitors and uses thereof” (Dana-Farber Cancer Institute, Inc., priority 2018, dated 2026).

Key:
Assay in all cases: KINOMEscan
Type in all cases: binding
Details in all cases: read-out: percent control
[1] = molecular target: RSK4(Kin.Dom.1-N-terminal) (Homo sapiens (Human), UniProt Q9UK32)
Source text: (§1) Example 2. In Vitro Kinase Selectivity Profiling of the Compounds of the Present Disclosure

MEK4 = MEK4 (Homo sapiens (Human), UniProt P45985)
Source text: as §1

[2] = molecular target: RPS6KA4(Kin.Dom.2-terminal) (Homo sapiens (Human), UniProt O75676)
Source text: as §1

EGFR(G719C) = EGFR(G719C) (Homo sapiens (Human), UniProt P00533, G719C)
Source text: as §1

ICK = ICK (Homo sapiens (Human), UniProt Q9UPZ9)
Source text: as §1

RET = RET (Homo sapiens (Human), UniProt P07949)
Source text: as §1

LIMK1 = LIMK1 (Homo sapiens (Human), UniProt P53667)
Source text: as §1

PIK3CA(E545A) = PIK3CA(E545A) (Homo sapiens (Human), UniProt P42336, E545A)
Source text: as §1

MKNK2 = MKNK2 (Homo sapiens (Human), UniProt Q9HBH9)
Source text: as §1

[3] = molecular target: ABL1(E255K)-phosphorylated (Homo sapiens (Human), UniProt P00519, E255K)
Source text: as §1

TNK2 = TNK2 (Homo sapiens (Human), UniProt Q07912)
Source text: as §1

HIPK3 = HIPK3 (Homo sapiens (Human), UniProt Q9H422)
Source text: as §1

AKT1 = AKT1 (Homo sapiens (Human), UniProt P31749)
Source text: as §1

ABL1-phosphorylated = ABL1-phosphorylated (Homo sapiens (Human), UniProt P00519)
Source text: as §1

PIK3CA(M1043I) = PIK3CA(M1043I) (Homo sapiens (Human), UniProt P42336, M1043I)
Source text: as §1

CAMKK2 = CAMKK2 (Homo sapiens (Human), UniProt Q96RR4)
Source text: as §1

PFCDPK1(P.falciparum) = PFCDPK1(P.falciparum) (Plasmodium falciparum (isolate 3D7), UniProt P62344)
Source text: as §1

NEK7 = NEK7 (Homo sapiens (Human), UniProt Q8TDX7)
Source text: as §1

ZAP70 = ZAP70 (Homo sapiens (Human), UniProt P43403)
Source text: as §1

TTK = TTK (Homo sapiens (Human), UniProt P33981)
Source text: as §1

MARK2 = MARK2 (Homo sapiens (Human), UniProt Q7KZI7)
Source text: as §1

PKAC-beta = PKAC-beta (Homo sapiens (Human), UniProt P22694)
Source text: as §1

ACVR1B = ACVR1B (Homo sapiens (Human), UniProt P36896)
Source text: as §1

MKK7 = MKK7 (Homo sapiens (Human), UniProt O14733)
Source text: as §1

[4] = molecular target: ABL1(F317I)-nonphosphorylated (Homo sapiens (Human), UniProt P00519, F317I)
Source text: as §1

BRSK2 = BRSK2 (Homo sapiens (Human), UniProt Q8IWQ3)
Source text: as §1

[5] = molecular target: ABL1(F317L)-phosphorylated (Homo sapiens (Human), UniProt P00519, F317L)
Source text: as §1

PIK3CA(I800L) = PIK3CA(I800L) (Homo sapiens (Human), UniProt P42336, I800L)
Source text: as §1

PKN1 = PKN1 (Homo sapiens (Human), UniProt Q16512)
Source text: as §1

NIM1 = NIM1 (Homo sapiens (Human), UniProt Q8IY84)
Source text: as §1

PIK3CD = PIK3CD (Homo sapiens (Human), UniProt O00329)
Source text: as §1

CDK9 = CDK9 (Homo sapiens (Human), UniProt P50750)
Source text: as §1

CASK = CASK (Homo sapiens (Human), UniProt O14936)
Source text: as §1

CDKL3 = CDKL3 (Homo sapiens (Human), UniProt Q8IVW4)
Source text: as §1

[6] = molecular target: ABL1(F317L)-nonphosphorylated (Homo sapiens (Human), UniProt P00519, F317L)
Source text: as §1

OSR1 = OSR1 (Homo sapiens (Human), UniProt O95747)
Source text: as §1

EGFR(L861Q) = EGFR(L861Q) (Homo sapiens (Human), UniProt P00533, L861Q)
Source text: as §1

ROCK1 = ROCK1 (Homo sapiens (Human), UniProt Q13464)
Source text: as §1

HIPK4 = HIPK4 (Homo sapiens (Human), UniProt Q8NE63)
Source text: as §1

BRSK2, sequence (Q8IWQ3 whole entry): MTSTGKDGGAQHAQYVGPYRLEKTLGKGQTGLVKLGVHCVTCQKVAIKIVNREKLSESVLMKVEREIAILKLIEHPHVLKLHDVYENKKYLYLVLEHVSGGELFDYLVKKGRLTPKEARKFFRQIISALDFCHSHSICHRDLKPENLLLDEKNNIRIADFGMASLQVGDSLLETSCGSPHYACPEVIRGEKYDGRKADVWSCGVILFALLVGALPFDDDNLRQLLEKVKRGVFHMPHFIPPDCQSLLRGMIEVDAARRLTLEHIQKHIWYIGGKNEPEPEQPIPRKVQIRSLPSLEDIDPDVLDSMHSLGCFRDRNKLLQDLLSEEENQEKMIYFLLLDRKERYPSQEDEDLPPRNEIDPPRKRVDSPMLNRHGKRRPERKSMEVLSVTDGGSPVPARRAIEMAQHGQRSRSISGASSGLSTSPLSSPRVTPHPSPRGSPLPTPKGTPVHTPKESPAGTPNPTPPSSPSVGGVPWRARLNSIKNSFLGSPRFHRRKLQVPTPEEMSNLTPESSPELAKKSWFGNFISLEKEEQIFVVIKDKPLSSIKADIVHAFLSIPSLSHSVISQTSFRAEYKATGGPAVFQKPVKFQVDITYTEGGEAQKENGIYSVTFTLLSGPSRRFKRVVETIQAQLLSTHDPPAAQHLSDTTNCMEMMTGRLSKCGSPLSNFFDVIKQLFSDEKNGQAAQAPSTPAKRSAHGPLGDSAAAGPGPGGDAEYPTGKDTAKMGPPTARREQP
TTK, sequence (P33981 whole entry): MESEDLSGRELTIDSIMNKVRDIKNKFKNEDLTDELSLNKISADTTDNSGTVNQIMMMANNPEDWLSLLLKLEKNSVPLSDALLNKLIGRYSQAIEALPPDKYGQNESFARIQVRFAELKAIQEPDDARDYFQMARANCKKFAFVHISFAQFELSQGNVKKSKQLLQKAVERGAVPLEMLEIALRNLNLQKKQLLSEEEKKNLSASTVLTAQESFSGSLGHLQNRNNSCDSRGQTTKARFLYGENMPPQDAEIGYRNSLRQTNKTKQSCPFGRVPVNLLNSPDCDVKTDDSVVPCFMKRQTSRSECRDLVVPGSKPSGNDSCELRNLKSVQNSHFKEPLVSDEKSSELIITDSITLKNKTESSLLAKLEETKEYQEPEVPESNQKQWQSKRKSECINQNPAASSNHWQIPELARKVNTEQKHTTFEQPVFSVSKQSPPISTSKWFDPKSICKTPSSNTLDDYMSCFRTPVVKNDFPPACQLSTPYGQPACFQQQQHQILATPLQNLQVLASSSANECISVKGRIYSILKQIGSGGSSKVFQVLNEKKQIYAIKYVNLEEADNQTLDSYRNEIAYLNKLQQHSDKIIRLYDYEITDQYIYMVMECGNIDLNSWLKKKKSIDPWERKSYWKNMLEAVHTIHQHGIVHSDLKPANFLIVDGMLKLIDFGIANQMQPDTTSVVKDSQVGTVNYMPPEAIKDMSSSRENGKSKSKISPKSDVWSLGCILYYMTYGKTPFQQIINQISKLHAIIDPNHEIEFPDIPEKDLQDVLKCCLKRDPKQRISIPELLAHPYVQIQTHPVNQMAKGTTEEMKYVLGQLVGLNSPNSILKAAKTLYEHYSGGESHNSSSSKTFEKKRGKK
ABL1(F317I)-nonphosphorylated, sequence (P00519 whole entry F317I): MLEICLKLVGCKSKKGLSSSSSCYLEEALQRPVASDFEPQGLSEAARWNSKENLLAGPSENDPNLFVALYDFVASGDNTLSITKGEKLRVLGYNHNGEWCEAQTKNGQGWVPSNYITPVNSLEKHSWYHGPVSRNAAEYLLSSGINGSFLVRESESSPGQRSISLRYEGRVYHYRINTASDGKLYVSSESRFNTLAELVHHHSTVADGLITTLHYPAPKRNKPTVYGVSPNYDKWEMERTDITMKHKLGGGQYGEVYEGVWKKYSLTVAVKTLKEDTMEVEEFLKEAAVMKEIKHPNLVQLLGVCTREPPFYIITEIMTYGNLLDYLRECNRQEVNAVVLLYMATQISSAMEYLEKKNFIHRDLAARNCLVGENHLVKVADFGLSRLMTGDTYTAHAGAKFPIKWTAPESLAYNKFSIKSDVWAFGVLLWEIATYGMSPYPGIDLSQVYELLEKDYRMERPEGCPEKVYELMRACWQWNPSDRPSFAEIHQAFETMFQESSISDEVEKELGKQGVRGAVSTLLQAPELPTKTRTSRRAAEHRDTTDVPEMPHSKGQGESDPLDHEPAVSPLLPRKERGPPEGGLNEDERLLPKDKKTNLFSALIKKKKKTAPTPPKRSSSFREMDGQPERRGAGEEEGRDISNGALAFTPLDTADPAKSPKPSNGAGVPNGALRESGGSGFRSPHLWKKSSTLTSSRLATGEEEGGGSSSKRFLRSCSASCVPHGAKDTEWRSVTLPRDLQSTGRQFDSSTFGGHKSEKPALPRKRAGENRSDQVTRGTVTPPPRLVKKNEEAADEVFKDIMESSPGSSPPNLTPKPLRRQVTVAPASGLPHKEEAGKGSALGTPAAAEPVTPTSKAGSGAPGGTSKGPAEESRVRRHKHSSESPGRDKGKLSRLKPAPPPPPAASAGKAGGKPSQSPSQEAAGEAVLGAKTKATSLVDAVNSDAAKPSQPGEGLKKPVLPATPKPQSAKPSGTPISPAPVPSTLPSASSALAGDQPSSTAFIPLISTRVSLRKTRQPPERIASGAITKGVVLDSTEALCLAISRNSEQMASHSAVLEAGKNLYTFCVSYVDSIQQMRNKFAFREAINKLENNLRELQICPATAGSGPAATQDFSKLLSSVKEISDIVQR
ABL1(F317L)-nonphosphorylated, sequence (P00519 whole entry F317L): as the sequence (P00519 whole entry F317I) above, with I317L counted along it
ABL1(F317L)-phosphorylated, sequence (P00519 whole entry F317L): as the sequence (P00519 whole entry F317I) above, with I317L counted along it
ROCK1, sequence (Q13464 whole entry): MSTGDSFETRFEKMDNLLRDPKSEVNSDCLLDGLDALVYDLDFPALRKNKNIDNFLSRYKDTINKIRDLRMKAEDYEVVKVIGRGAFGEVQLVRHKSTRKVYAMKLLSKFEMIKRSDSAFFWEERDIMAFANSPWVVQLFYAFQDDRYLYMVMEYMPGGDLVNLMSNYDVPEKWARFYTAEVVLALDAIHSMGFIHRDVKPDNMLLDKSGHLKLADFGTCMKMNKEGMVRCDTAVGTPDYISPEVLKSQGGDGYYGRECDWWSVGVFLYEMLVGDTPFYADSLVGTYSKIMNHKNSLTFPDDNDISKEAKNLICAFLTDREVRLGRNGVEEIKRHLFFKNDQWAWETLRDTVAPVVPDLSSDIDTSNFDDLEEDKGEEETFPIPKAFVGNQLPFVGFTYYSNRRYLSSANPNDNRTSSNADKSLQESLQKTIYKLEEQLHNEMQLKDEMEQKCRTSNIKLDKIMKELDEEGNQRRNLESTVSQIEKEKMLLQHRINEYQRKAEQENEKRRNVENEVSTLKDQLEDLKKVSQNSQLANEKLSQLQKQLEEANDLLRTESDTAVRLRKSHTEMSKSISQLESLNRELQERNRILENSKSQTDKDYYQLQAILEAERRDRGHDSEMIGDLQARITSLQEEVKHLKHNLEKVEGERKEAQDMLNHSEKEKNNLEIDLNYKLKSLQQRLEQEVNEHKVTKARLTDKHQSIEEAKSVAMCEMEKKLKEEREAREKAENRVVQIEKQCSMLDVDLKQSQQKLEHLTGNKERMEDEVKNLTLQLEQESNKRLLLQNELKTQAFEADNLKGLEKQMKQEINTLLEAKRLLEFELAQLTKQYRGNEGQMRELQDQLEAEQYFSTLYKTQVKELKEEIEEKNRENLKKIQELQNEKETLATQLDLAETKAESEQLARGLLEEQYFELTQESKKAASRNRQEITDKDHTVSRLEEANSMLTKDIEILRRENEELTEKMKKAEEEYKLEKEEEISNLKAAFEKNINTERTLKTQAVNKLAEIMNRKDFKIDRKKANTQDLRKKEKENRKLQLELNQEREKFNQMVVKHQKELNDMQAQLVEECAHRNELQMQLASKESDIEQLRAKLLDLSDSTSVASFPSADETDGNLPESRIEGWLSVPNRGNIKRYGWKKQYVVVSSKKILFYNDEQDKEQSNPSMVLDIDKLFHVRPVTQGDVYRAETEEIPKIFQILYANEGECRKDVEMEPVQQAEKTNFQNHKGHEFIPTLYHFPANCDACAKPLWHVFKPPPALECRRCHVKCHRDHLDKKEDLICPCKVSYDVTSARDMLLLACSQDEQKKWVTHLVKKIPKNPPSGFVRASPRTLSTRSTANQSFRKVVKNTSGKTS
CAMKK2, sequence (Q96RR4 whole entry): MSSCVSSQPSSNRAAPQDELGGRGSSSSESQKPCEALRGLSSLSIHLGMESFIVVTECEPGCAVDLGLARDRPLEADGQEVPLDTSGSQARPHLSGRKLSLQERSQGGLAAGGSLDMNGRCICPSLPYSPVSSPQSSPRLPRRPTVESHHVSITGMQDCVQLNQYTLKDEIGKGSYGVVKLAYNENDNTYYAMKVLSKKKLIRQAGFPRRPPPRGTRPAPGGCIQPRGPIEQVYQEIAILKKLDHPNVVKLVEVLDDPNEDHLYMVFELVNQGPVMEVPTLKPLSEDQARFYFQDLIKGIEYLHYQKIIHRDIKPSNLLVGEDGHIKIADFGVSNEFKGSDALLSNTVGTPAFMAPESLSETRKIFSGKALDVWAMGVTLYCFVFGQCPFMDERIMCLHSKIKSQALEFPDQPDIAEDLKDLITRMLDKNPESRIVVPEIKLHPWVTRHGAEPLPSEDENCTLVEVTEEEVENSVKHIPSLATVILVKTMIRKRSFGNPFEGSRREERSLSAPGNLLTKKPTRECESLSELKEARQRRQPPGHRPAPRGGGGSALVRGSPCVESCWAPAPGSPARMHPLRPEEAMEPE
NEK7, sequence (Q8TDX7 whole entry): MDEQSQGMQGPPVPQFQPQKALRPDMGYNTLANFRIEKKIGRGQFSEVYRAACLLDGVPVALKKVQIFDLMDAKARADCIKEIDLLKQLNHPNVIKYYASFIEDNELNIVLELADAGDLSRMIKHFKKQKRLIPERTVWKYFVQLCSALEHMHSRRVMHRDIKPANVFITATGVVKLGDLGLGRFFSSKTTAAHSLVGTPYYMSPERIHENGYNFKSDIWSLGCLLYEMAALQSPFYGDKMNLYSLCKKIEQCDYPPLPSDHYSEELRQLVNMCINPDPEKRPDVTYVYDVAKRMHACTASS

| SMILES | remaining binding at 1 µM [1] [%] | remaining binding at 1 µM (MEK4) [%] | remaining binding at 1 µM [2] [%] | remaining binding at 1 µM (EGFR(G719C)) [%] | remaining binding at 1 µM (ICK) [%] | remaining binding at 1 µM (RET) [%] | remaining binding at 1 µM (LIMK1) [%] | remaining binding at 1 µM (PIK3CA(E545A)) [%] | remaining binding at 1 µM (MKNK2) [%] | remaining binding at 1 µM [3] [%] | remaining binding at 1 µM (TNK2) [%] | remaining binding at 1 µM (HIPK3) [%] | remaining binding at 1 µM (AKT1) [%] | remaining binding at 1 µM (ABL1-phosphorylated) [%] | remaining binding at 1 µM (PIK3CA(M1043I)) [%] | remaining binding at 1 µM (CAMKK2) [%] | remaining binding at 1 µM (PFCDPK1(P.falciparum)) [%] | remaining binding at 1 µM (NEK7) [%] | remaining binding at 1 µM (ZAP70) [%] | remaining binding at 1 µM (TTK) [%] | also measured |
| --- | --- | --- | --- | --- | --- | --- | --- | --- | --- | --- | --- | --- | --- | --- | --- | --- | --- | --- | --- | --- | --- |
| CCN1CCN(Cc2ccc(Nc3nc4ccc(Oc5ccnc(NC(C)=O)c5)cc4n3C)cc2C(F)(F)F)CC1 [Compound I-2] | 100 | 97 | 88 | 97 | 100 | 0 | 100 | 100 | 82 | 30 | 94 | 85 | 94 | 23 | 78 | 100 | 77 | 88 | 100 | 75 | remaining binding at 1 µM (MARK2): 100%; remaining binding at 1 µM (PKAC-beta): 94%; remaining binding at 1 µM (ACVR1B): 100%; remaining binding at 1 µM (MKK7): 80%; remaining binding at 1 µM [4]: 37%; remaining binding at 1 µM (BRSK2): 100%; remaining binding at 1 µM [5]: 43%; remaining binding at 1 µM (PIK3CA(I800L)): 75%; remaining binding at 1 µM (PKN1): 57%; remaining binding at 1 µM (NIM1): 97%; remaining binding at 1 µM (PIK3CD): 72%; remaining binding at 1 µM (CDK9): 100%; remaining binding at 1 µM (CASK): 78%; remaining binding at 1 µM (CDKL3): 7.6%; remaining binding at 1 µM [6]: 9%; remaining binding at 1 µM (OSR1): 100%; remaining binding at 1 µM (EGFR(L861Q)): 98%; remaining binding at 1 µM (ROCK1): 100%; remaining binding at 1 µM (HIPK4): 100% |
| CCN1CCN(Cc2ccc(Nc3nc4ccc(Oc5ccnc(NC(C)=O)c5)c(C)c4n3C)cc2C(F)(F)F)CC1 [Compound I-6, N-(4-(2-(4-((4-ethylpiperazin-1-yl)methyl)-3-(trifluoromethyl)phenylamino)-1,7-dimethyl-1H-benzo[d]imidazol-6-yloxy)pyridin-2-yl)acetamide] | 93 | 91 | 89 | 94 | 82 | 0.1 | 65 | 100 | 66 | 33 | 100 | 76 | 89 | 11 | 100 | 99 | 65 | 95 | 99 | 96 | remaining binding at 1 µM (MARK2): 100%; remaining binding at 1 µM (PKAC-beta): 86%; remaining binding at 1 µM (ACVR1B): 94%; remaining binding at 1 µM (MKK7): 94%; remaining binding at 1 µM [4]: 7.4%; remaining binding at 1 µM (BRSK2): 74%; remaining binding at 1 µM [5]: 44%; remaining binding at 1 µM (PIK3CA(I800L)): 98%; remaining binding at 1 µM (PKN1): 100%; remaining binding at 1 µM (NIM1): 93%; remaining binding at 1 µM (PIK3CD): 88%; remaining binding at 1 µM (CDK9): 96%; remaining binding at 1 µM (CASK): 87%; remaining binding at 1 µM (CDKL3): 0.4%; remaining binding at 1 µM [6]: 3.2%; remaining binding at 1 µM (OSR1): 87%; remaining binding at 1 µM (EGFR(L861Q)): 100%; remaining binding at 1 µM (ROCK1): 83%; remaining binding at 1 µM (HIPK4): 100% |
